Laboratory results reported in article PMC5154303, “Flavonol and imidazole derivatives block HPV16 E6 activities and reactivate apoptotic pathways in HPV^+ cells” (Cell Death & Disease, 2016).

How the values were obtained:
[1] = tested on: UMSCC47; experiment: TRAIL-induced cell death in HPV+ HNSCC line UMSCC47 (MTT); assay type: cell-based, human; conditions: HPV+ #47, 40 μM compound 4 h, 50 ng/ml TRAIL + cycloheximide
Method: Figure 7 Myricetin and spinacine (5) can re-sensitize HPV^+, but not HPV^−, head and neck cancer cell lines to treatment with TRAIL. (a) Both HPV^− and HPV^+ HN cancer cell lines display resistance to TRAIL treatment. (b) HPV^− (UMSCC 29 and SCC 84) and (c) HPV^+ (UMSCC 47, UPCI-SCC90-UP-Clone 35, and UM-SCC47-TC-Clone 3) head and neck cancer cell lines (2 × 10^4 cells per well) were seeded into 96-well plates and allowed to incubate overnight, and then cells were pretreated with myricetin (0–200 μM) or spinacine (0–100 μM) for 4 h. […] Cell viability was measured by the MTT assay, and the viability of cells untreated with small molecules was set at 100%. Experiments were performed in triplicate, and error bars indicate the S.D.
(§1) The extracellular domain of human TRAIL was cloned into a pTriEx expression plasmid containing N-terminal Hisx6 tag. His-TRAIL was expressed in the E. coli BL-21 pLys strain and purified as previously described. Doxorubicin and cisplatin were purchased from Sigma. His-TRAIL, doxorubicin, and cisplatin were diluted in PBS to the desired concentration before using. […] All experiments were repeated at least three times (three biological replicates, carried out on different days), with each experimental group measured in triplicate within each of these individual experiments. […]

[2] = target: T1, GST-E6/His-E6AP (Human papillomavirus type 16, UniProt P03126); experiment: AlphaScreen bead-based binding assay GST-E6/His-E6AP; design: species or system HPV 16
T1 construct: made in house
T1 sequence (P03126 whole entry): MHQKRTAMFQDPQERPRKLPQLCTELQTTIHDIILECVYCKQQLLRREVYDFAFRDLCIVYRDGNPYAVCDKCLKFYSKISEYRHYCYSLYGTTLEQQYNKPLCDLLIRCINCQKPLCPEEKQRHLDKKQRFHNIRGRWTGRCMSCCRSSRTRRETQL
Method: (§2) Figure 2 3-(1H-indol-1yl)propan-1-amine (1), three benzimidazole derivatives (2–4), and spinacine (5) inhibit protein–protein interactions. Five compounds at the indicated concentrations (1.4 μM–3.2 mM) were tested using our bead-based screening assay for their ability to inhibit three different protein/protein interactions: (a) GST-E6/His-caspase 8; (b) GST-E6/HisE6AP; and (c) GST-caspase 8/His-caspase 8. Binding in the presence of 1.4 μM of the test compound was set at 100%. Experiments were performed in triplicate, and error bars indicate the S.D.
The construction of the pGEX-E6, pTriEx-E6AP, and pTriEx-Caspase-8 DED plasmids has been reported.[33] Expression and purification of GSTE6, His-E6AP, and His-Caspase-8 DED were carried out as previously described.[33], [37] GST-tagged and His-tagged proteins were diluted into GST dilution buffer (PBS pH 8.0, 5% glycerol, 2 mM DTT) and His dilution buffer (20 mM Hepes pH 7.4, 150 mM NaCl, 2 mMKCl, 5% glycerol, 2 mM DTT), respectively. Protein concentration was measured using Coomassie Plus – The Better Bradford Assay Reagent (Thermo Scientific, Waltham, MA, USA). Purity of the isolated proteins was estimated following separation by sodium dodecyl sulfate-polyacrylamide gel electrophoresis (SDS-PAGE) and Coomassie staining.
(§3) AlphaScreen Technology was used to assess the interactions between GST-E6, GST-caspase 8, His-E6AP, and His-caspase 8. Binding assays were performed in white 384-well plates (Perkin-Elmer) in a total volume of 25 μl as previously described.[33] Briefly, 5 μl (50 ng) of GST-E6 and 5 μl (87.5 ng) of His-caspase 8 were included in each reaction mixture with 5 μl blocking buffer (0.5 mg BSA, 0.5% Tween 20 in PBS) in the absence or presence of 10 μM of each test chemical. Members of the library were present at 10 μM in DMSO. After a 1-h incubation of the mixture at room temperature, 5 μl donor beads and 5 μl acceptor beads (Perkin-Elmer) were added to each well according to the manufacturer's protocol. The mixture was incubated in the dark at room temperature overnight, and the emitted signal was detected using the Envision Multilabel plate reader (Perkin-Elmer). In the presence of test chemicals, the binding affinity was calculated as a percentage of the binding in the presence of carrier only (DMSO).

[3] = target: GST-caspase 8/His-caspase 8 (Homo sapiens, UniProt Q14790); experiment: AlphaScreen counter-screen GST-caspase 8/His-caspase 8; assay type: binding; conditions: counter-screen, bead-based assay, 1.4 μM–3.2 mM tested
Sequence of GST-caspase 8/His-caspase 8 (Q14790 1-184): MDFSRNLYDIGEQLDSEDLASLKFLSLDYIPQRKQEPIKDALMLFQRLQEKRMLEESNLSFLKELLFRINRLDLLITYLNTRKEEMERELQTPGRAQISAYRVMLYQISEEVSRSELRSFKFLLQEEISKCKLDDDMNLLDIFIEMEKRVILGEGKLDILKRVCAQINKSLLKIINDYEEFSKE
Method: as §2
To ask whether this inhibition was specific, we employed a counter-screening assay in which we assessed the ability of candidates to inhibit the binding of GST-caspase 8 to His-caspase 8; those that did were to be eliminated. In this counter-screening assay, the materials in each well were the same as in the primary screen, with the exception that GST-caspase 8 replaced GST-E6.
as §3

[4] = tested on: UPCI-SCC90-UP-Clone 35; experiment: Sensitization to doxorubicin in HPV+ HNSCC line UPCI-SCC90-UP-Clone 35 (MTT); assay type: cell-based, human; conditions: HPV+ #90, 12.5 μM compound 4 h, 2 μM doxorubicin
Method: (§4) Figure 8 Myricetin and spinacine (5) can re-sensitize HPV^+, but not HPV^−, HNSCC cell lines to treatment with doxorubicin. Two HPV^− (UMMSCC 29 and SCC 84) and three HPV^+ (UMSCC 47, UPCI-SCC90-UP-Clone 35, and UM-SCC47-TC Clone 3) head and neck cancer cell lines (2 × 10^4 cells per well) were seeded into 96-well plates and allowed to incubate overnight, and then cells were pretreated with myricetin or spinacine (0–12.5 μM) for 4 h. In all, 2 μM of doxorubicin was added, and the cells were allowed to incubate overnight. Cell viability was measured by MTT assay, and the viability of cells untreated with small molecules was set at 100%. Experiments were performed in triplicate, and error bars indicate the S.D.
as §1

[5] = tested on: UMSCC 47; experiment: Sensitization to doxorubicin in HPV+ HNSCC line UMSCC 47 (MTT); assay type: cell-based, human; conditions: HPV+ #47, 12.5 μM compound 4 h, 2 μM doxorubicin
Method: as §4, §1

[6] = tested on: UM-SCC47-TC-Clone 3; experiment: Sensitization to doxorubicin in HPV+ HNSCC line UM-SCC47-TC-Clone 3 (MTT); assay type: cell-based, human; conditions: HPV+ #47CL3, 12.5 μM compound 4 h, 2 μM doxorubicin
Method: as §4, §1

Row | SMILES | enhancement of TRAIL-induced cell death [1] | EC50 [2] [µM] | EC50 for GST-caspase 8/His-caspase 8 interaction [3] | sensitization to doxorubicin [4] | sensitization to doxorubicin [5] | sensitization to doxorubicin [6]
1 | O=c1c(O)c(-c2cc(O)c(O)c(O)c2)oc2cc(O)cc(O)c12 [Myricetin, myricetin, reference compound] | 40% | – | – | – | – | –
2 | O=C(O)C1Cc2[nH]cnc2CN1 (stereo not shown) [Spinacine (5), 4,5,6,7-tetrahydro-1H-imidazo[4,5–c]pyridine-6-carboxylic acid] | up to 50% | 20 | No Inhibition | up to 50% | up to 50% | up to 50%
